The source of these data is PubChem BioAssay AID588383 (NMMLSC, 2011).

The test has as its target GTPase HRas (Homo sapiens) (UniProt P01112). Nature of the test: Ras wild-type GTP-binding inhibitors, SAR follow-up, selectivity assay for Cdc42 probe extension project, biochemical, multiplex bead flow cytometry, round 1 (AID 588383). The settings on record: GST-Ras wt beads, Bodipy-FL-GTP binding; for % response, lower = inhibition: at 100 µM (top of the series). In general terms: In flow cytometry, cells or beads pass a laser one at a time.

The term EC50 denotes the concentration that produces a half-maximal response.

Activity calls are given as the source filed them.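 How the source made its calls: active means half-effect concentration at most 10 µM with response change of 30% or more and an acceptable curve fit; inactive means the rest.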

GTPase HRas (Homo sapiens), sequence (P01112 whole entry, looked up): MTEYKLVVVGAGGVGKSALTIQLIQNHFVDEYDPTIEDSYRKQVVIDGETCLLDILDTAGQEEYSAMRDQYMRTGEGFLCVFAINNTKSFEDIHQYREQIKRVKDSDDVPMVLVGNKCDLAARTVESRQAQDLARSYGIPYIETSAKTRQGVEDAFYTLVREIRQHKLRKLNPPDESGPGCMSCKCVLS

Consider `O=C(C#Cc1ccccc1)c1cccc([N+](=O)[O-])c1`, for which the “% response, lower = inhibition” value is “inactive”.

Take `CC1(C)Cc2c(sc(NC(=S)NC(=O)c3ccccc3)c2C(=O)O)CO1`: the concentration giving a half-maximal response (EC50) was 78 nM.

For the molecule `COc1ccc(C2CC(c3ccccc3)=NN2c2ccc(S(N)(=O)=O)cc2)cc1` (centres undefined), the “% response, lower = inhibition” value was “inactive”.

For `NS(=O)(=O)c1ccc(N2N=C(c3ccccc3)CC2c2ccccc2)cc1` (centres undefined), the “% response, lower = inhibition” value was “inactive”.
